Structures can show the parent of a compound that is named as a salt. Values belong to the compound of their own block, whether it stands above or below them.
Experiments:
Format in all cases: biochemical
[1] = target: T1, FFA-albumin linkage (human serum albumin) (Homo sapiens, UniProt P02768); test: Example 1: rate of ACS-coupled NADH reaction (Procedure A) on FFA sample containing albumin, with dissociating agent; details: sample 0.5 mM FFA + 2.5% human serum albumin, 37° C.
Experimental: 100 mM Tris-HCl buffer pH 8.0 containing 2 mg/ml of Triton X-100, 2 mM 2Na-EDTA (disodium ethylenediaminetetraacetate) and 10 mM MgCl2.
40 mg of ATP disodium salt, 50 mg of potassium phosphoenolpyruvate, 20 U of myokinase (available from Boehringer Mannheim (B.M.), grade I), 15 U of pyruvate kinase (available from B.M., grade II) and 15 U of lactate dehydrogenase (available from B.M., derived from rabbit muscle) are dissolved in 1 ml of the above-mentioned buffer.
In 1 ml of the above buffer, 3 mg of NADH disodium salt is dissolved.
An ACS solution in 50% glycerine in a concentration of about 4 U/ml as prepared in Preparation 1 which is diluted with three volumes of water is used.
Aqueous 0.5 mM potassium oleate solution is used. […] The content of the microcell was then preheated at 37° C. in a spectrophotometer (Shimadzu, model UV-200) equipped with a thermostated cell holder. Thereafter 20 μl of the CoA solution was added to initiate the reaction and decrease in optical density (OD) at 340 nm was recorded with the elapse of time. From the data, the value of maximum ΔOD/min was calculated.

[2] = target: T2, FFA-albumin linkage in human serum (Homo sapiens, UniProt P02768); test: Example 2: enzymatic assay of FFA in human serum samples (Procedure A) with dissociating agent
T2 construct: were replaced by human serum samples; from tissue; host or cells: human serum
Experimental: The reaction was continued for 15 minutes at 37° C., and the OD340 values were read just before the addition of CoA solution and 15 minutes later when the reaction was almost complete and decrease in OD ceased. As a sample blank distilled water was substituted for the ACS solution in the reaction systems and the reaction and measurement of OD were carried out in the same way.
The concentration of FFA in a serum sample was calculated by the following equation: [formula] where:
A=0D340 of the reaction system just before the addition of CoA solution;
B=OD340 of the reaction system after 15 minutes
C=OD340 just before the addition of CoA solution in the blank run, and
D=OD340 after 15 minutes in the blank run.

[3] = target: T1, FFA-albumin linkage (human serum albumin); test: Example 3: ACS/ACO colorimetric FFA assay (Procedure B) on potassium oleate plus human serum albumin; details: 0.5% in assay system; sample 280 μM potassium oleate + 2.5% human serum albumin; without agent -0.016
Experimental: 100 mM Tris-HCl buffer pH 8.0 containing 3.2 mM Triton X-100, 2 mM disodium ethylenediaminetetraacetate and a dissociating agent such as a benzenesulfonate.
100 mM Tris-HCl buffer pH 8.0 containing 60 mM magnesium chloride.
A solution of 80 mg of ATP disodium salt and 20 U of myokinase dissolved in 40 ml of Buffer (1).
Prepared by adding 5 ml of the ACS solution in 50% glycerine with a concentration of about 4 U/ml as prepared in Preparation 1 to a solution of 25 mg of CoA in 5 ml of Buffer (2).
A suspension of ACO in 50% saturated ammonium sulfate having a concentration of about 50 U/ml and prepared as described in Preparation 2. […]
A mixture of 100 μl of a sample containing 280 μM potassium oleate and 2.5% human serum albumin, 400 μl of Enzyme Solution (1) and 100 μl of Enzyme Solution (2) was kept at 37° C. for 15 minutes. […] The reaction solution was placed into a cell having a thickness of 10 mm and the value (A) for optical density at 535 nm was measured. As a control, the sample was replaced by the same volume of water and the optical density value (B) was measured in the same way.
An aqueous potassium oleate solution which is free from albumin was separately prepared as a standard solution. This solution was substituted for the sample and the optical density value (C) was also measured in the same way. […]

[4] = human serum C, solution of dissociating agent 20 mM, extraction method 560
[5] = dissociating agent 25 mM, control with albumin 0.019, without albumin 0.076

T1 sequence (P02768 25-609): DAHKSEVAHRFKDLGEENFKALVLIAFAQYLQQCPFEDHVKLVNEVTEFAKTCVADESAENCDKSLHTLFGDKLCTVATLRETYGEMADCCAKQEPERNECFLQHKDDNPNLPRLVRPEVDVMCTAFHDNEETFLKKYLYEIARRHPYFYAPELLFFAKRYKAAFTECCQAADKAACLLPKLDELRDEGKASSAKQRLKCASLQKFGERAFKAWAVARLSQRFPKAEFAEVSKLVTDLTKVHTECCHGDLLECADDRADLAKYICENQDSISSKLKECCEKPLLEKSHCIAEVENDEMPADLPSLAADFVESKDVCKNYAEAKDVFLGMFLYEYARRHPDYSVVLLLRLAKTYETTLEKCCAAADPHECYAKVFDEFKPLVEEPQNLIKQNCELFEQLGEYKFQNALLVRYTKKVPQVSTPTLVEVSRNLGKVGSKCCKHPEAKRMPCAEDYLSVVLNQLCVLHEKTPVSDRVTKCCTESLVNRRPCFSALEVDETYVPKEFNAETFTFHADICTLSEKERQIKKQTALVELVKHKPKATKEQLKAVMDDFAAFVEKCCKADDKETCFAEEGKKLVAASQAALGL
T2 sequence (P02768 25-609): as above

Compound: O=C(O)CCCCCCCCC(=O)O [Potassium salt of 1,8-octamethylenedicarboxylic acid]
maximum ΔOD340/min [1, 5]: 0.026 ΔOD340/min

Compound: Cc1ccc(S(=O)(=O)O)cc1 [Sodium p-toluenesulfonate]
maximum ΔOD340/min ([1]; dissociating agent 100 mM): 0.030 ΔOD340/min
FFA assayed ([2]; human serum C, solution of dissociating agent 1000 mM, extraction method 560): 585 µM
ΔOD535 [3]: 0.078

Compound: O=C(O)CCCCCCC(=O)O [Potassium salt of hexamethylenedicarboxylic acid, reference compound]
maximum ΔOD340/min [1, 5]: 0.015 ΔOD340/min

Compound: CCCCCc1ccc(S(=O)(=O)[O-])cc1.[Na+] [Sodium p-n-amylbenzenesulfonate]
maximum ΔOD340/min ([1]; dissociating agent 50 mM): 0.030 ΔOD340/min

Compound: O=C(O)CCCCC(=O)O [Potassium salt of tetramethylenedicarboxylic acid, reference compound]
maximum ΔOD340/min [1, 5]: 0.015 ΔOD340/min

Next, values leading:

maximum ΔOD340/min ([1]; dissociating agent 5 mM): 0.028 ΔOD340/min
maximum ΔOD340/min ([1]; dissociating agent 10 mM): 0.031 ΔOD340/min
maximum ΔOD340/min ([1]; dissociating agent 20 mM): 0.034 ΔOD340/min
FFA assayed ([2]; human serum B, solution of dissociating agent 50 mM, extraction method 370): 335 µM
Compound: O=C(O)CCCCCCCCCCC(=O)O [Potassium salt of decamethylenedicarboxylic acid]

maximum ΔOD340/min ([1]; dissociating agent 2.5 mM): 0.032 ΔOD340/min
Compound: O=C(O)CCCCCCCCCCCCCCCCC(=O)O [Dipotassium 1,16-hexadecamethylenedicarboxylate]

maximum ΔOD340/min ([1]; dissociating agent 5 mM): 0.035 ΔOD340/min
maximum ΔOD340/min ([1]; dissociating agent 10 mM): 0.040 ΔOD340/min
maximum ΔOD340/min ([1]; dissociating agent 20 mM): 0.045 ΔOD340/min
FFA assayed ([2]; human serum A, solution of dissociating agent 20 mM, extraction method 1475): 1500 µM
FFA assayed ([2]; human serum B, solution of dissociating agent 20 mM, extraction method 370): 340 µM
FFA assayed [2, 4]: 570 µM
Compound: O=C(O)CCCCCCCCCCCC(=O)O [Potassium salt of 1,11-undecamethylenedicarboxylic acid]

maximum ΔOD340/min ([1]; dissociating agent 2.5 mM): 0.041 ΔOD340/min
maximum ΔOD340/min ([1]; dissociating agent 10 mM): 0.048 ΔOD340/min
FFA assayed [2, 4]: 575 µM
Compound: O=C(O)CCCCCCCCCCCCC(=O)O [Dipotassium 1,12-dodecamethylenedicarboxylate]

maximum ΔOD340/min ([1]; dissociating agent 2.5 mM): 0.045 ΔOD340/min
FFA assayed ([2]; human serum B, solution of dissociating agent 10 mM, extraction method 370): 340 µM
FFA assayed ([2]; human serum C, solution of dissociating agent 10 mM, extraction method 560): 570 µM
Compound: O=C(O)CCCCCCCCCCCCCCC(=O)O [Dipotassium 1,14-tetradecamethylenedicarboxylate]
